Measurements reported in patent US9624214B2, “Amino-substituted imidazo[1,2-a]pyridinecarboxamides and their use” (BAYER PHARMA AKTIENGESELLSCHAFT, priority 2012, dated 2017).
Counter-ions that a name gives are not always drawn.

molecular target: T1, recombinant guanylate cyclase reporter cell line (Rattus norvegicus, UniProt P19686+P20595); experiment: B-2. Action on recombinant guanylate cyclase reporter cell line; format: cell-based; conditions: MEC = minimal effective concentration; in some cases mean values from individual determinations
T1 construct: expressed in transfected cells
T1 sequence (P20595 1-619): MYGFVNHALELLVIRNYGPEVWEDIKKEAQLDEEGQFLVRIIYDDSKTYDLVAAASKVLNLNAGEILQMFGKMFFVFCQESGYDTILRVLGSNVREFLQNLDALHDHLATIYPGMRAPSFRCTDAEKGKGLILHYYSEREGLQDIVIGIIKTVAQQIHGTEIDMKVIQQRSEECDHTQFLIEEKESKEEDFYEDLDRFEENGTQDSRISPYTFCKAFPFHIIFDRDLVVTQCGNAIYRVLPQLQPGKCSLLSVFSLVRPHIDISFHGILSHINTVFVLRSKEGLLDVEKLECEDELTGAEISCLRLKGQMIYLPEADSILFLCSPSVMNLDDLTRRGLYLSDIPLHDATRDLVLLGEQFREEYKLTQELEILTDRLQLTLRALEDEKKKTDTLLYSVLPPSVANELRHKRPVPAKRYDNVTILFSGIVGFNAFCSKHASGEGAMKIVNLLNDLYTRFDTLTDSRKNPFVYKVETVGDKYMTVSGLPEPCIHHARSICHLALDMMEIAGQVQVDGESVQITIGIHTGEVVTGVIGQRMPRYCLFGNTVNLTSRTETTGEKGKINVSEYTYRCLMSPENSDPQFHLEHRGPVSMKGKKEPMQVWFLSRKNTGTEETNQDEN
T1 sequence (P19686 1-690): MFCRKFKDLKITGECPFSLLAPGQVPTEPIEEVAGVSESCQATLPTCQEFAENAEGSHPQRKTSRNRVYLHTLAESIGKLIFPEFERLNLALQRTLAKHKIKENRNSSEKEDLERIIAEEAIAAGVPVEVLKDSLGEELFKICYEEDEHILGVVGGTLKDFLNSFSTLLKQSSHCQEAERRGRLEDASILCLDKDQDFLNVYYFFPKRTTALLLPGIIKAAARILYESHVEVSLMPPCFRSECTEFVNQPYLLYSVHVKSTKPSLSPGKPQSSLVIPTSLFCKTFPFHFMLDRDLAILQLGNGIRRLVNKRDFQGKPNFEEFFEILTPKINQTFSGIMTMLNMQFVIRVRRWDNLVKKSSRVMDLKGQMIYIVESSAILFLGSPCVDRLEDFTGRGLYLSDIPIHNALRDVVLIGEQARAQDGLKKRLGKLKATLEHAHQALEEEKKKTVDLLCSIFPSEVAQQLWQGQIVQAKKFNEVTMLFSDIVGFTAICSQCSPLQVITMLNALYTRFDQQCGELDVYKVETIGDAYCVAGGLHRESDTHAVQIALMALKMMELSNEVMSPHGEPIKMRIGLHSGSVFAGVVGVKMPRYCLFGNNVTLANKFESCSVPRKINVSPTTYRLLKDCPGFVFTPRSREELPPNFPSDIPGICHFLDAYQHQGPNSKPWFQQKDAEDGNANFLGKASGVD
How it was run: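 Whole-cell reporter assay with recombinant guanylate cyclase; endpoint = minimal effective concentration.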

Row | MEC [µM] | Compound
1 | 0.03 | Cc1nc2c(OCc3c(F)cccc3F)cccn2c1C(=O)NC1CCNc2ccccc21 (racemic) [Example 50, rac-8-[(2,6-Difluorobenzyl)oxy]-2-methyl-N-(1,2,3,4-tetrahydroquinolin-4-yl)imidazo[1,2-a]-pyridine-3-carboxamide]
2 | 1.00 | Cc1nc2c(OCc3c(F)cccc3F)cccn2c1C(=O)NCCNC(C)C [Example 130, 8-[(2,6-difluorobenzyl)oxy]-N-[2-(isopropylamino)ethyl]-2-methylimidazo[1,2-a]-pyridine-3-carboxamide]
3 | 3.00 | CCCC(C)(N)CNC(=O)c1c(C)nc2c(OCc3c(F)ccc(C4CC4)c3F)cc(C)cn12 (stereo not drawn) [Example 359, ent-N-(2-amino-2-methylpentyl)-8-[(3-cyclopropyl-2,6-difluorobenzyl)oxy]-2,6-dimethylimidazo[1,2-a]pyridine-3-carboxamide]
4 | 3.00 | Cc1nc2c(OCc3c(F)cccc3F)cccn2c1C(=O)NC(CN)COc1ccccc1 (racemic) [Example 59, rac-N-(1-amino-3-phenoxypropan-2-yl)-8-[(2,6-difluorobenzyl)oxy]-2-methylimidazo[1,2-a]-pyridine-3-carboxamide dihydrochloride]
5 | 0.30 | Cc1cc(OCc2c(F)cccc2F)c2nc(C)c(C(=O)NC3CCCCNC3)n2c1 (racemic) [Example 316, rac-N-(azepan-3-yl)-8-[(2,6-difluorobenzyl)oxy]-2,6-dimethylimidazo[1,2-a]pyridine-3-carboxamide]
6 | 1.00 | Cc1nc2c(OCc3c(F)cccc3F)cccn2c1C(=O)NCCC(C)(C)N [Example 117, N-(3-amino-3-methylbutyl)-8-[(2,6-difluorobenzyl)oxy]-2-methylimidazo[1,2-a]-pyridine-3-carboxamide]
7 | 0.10 | Cc1nc2c(OCc3c(F)cccc3F)cc(Cl)cn2c1C(=O)NCCN(CC(F)F)C1CC1 [Example 150, 6-chloro-N-{2-[cyclopropyl(2,2-difluoroethyl)-amino]ethyl}-8-[(2,6-difluorobenzyl)oxy]-2-methylimidazo[1,2-a]pyridine-3-carboxamide]
8 | 1.00 | Cc1nc2c(OCc3c(F)cccc3F)cc(Cl)cn2c1C(=O)NCCNC(C)C [Example 149, 6-chloro-8-[(2,6-difluorobenzyl)oxy]-N-[2-(isopropylamino)ethyl]-2-methylimidazo[1,2-a]-pyridine-3-carboxamide]
9 | 0.20 | Cc1cc(OCc2c(F)cccc2F)c2nc(C)c(C(=O)NC3CCC(N)C3)n2c1 (mixture of isomers) [Example 308, N-(3-aminocyclopentyl)-8-[(2,6-difluorobenzyl)oxy]-2,6-dimethylimidazo[1,2-a]pyridine-3-carboxamide (Stereoisomer Mixture)]
10 | 0.20 | Cc1nc2c(OCc3c(F)cccc3F)cccn2c1C(=O)NC1CC(C)(C)NC(C)(C)C1 [Example 82, 8-[(2,6-Difluorobenzyl)oxy]-2-methyl-N-(2,2,6,6-tetramethylpiperidin-4-yl)imidazo[1,2-a]-pyridine-3-carboxamide]
11 | 1.00 | CCCC[C@H](CN(CC)CC)NC(=O)c1c(C)nc2c(OCc3c(F)cccc3F)cccn12 [Example 69, ent-N-[(2R)-1-(diethylamino)hexan-2-yl]-8-[(2,6-difluorobenzyl)oxy]-2-methylimidazo[1,2-a]-pyridine-3-carboxamide]
12 | 0.30 | COCC(C)(N)CNC(=O)c1c(C)nc2c(OCc3c(F)cccc3F)cc(C)cn12 (racemic) [Example 166, rac-N-(2-amino-3-methoxy-2-methylpropyl)-8-[(2,6-difluorobenzyl)oxy]-2,6-dimethylimidazo[1,2-a]pyridine-3-carboxamide]
13 | 1.00 | Cc1nc2c(OCC3CCCCC3)cccn2c1C(=O)NC(CN)c1ccc(Cl)cc1 (racemic) [Example 43, rac-N-[2-Amino-1-(4-chlorophenyl)ethyl]-8-(cyclohexylmethoxy)-2-methylimidazo[1,2-a]-pyridine-3-carboxamide]
14 | 0.10 | Cc1cc(OCc2c(F)cccc2F)c2nc(C)c(C(=O)NCC(N)CC(F)(F)F)n2c1 (single isomer, unassigned) [Example 128, ent-N-(2-Amino-4,4,4-trifluorobutyl)-8-[(2,6-difluorobenzyl)oxy]-2,6-dimethylimidazo[1,2-a]-pyridine-3-carboxamide]
15 | 1.00 | Cc1cc(OCc2c(F)cccc2F)c2nc(C)c(C(=O)NC(C)CN)n2c1 (stereo not drawn) [Example 48, ent-N-(1-Aminopropan-2-yl)-8-[(2,6-difluorobenzyl)oxy]-2,6-dimethylimidazo[1,2-a]pyridine-3-carboxamide]
16 | 3.00 | Cc1cc(OCc2c(F)cccc2F)c2nc(C)c(C(=O)N[C@@H]3CCCC[C@H]3N)n2c1 [Example 251, ent-N-[(1R,2R)-2-Aminocyclohexyl]-8-[(2,6-difluorobenzyl)oxy]-2,6-dimethylimidazo[1,2-a]-pyridine-3-carboxamide]
17 | 1.00 | Cc1cc(OCc2c(F)ccc(C3CC3)c2F)c2nc(C)c(C(=O)NCC(C)(N)CF)n2c1 (stereo not shown) [Example 362, N-(2-amino-3-fluoro-2-methylpropyl)-8-[(3-cyclopropyl-2,6-difluorobenzyl)oxy]-2,6-dimethylimidazo[1,2-a]pyridine-3-carboxamide]
18 | 1.00 | Cc1nc2c(OCc3c(F)cccc3F)cccn2c1C(=O)NC(C)CN (racemic) [Example 17, rac-N-(1-aminopropan-2-yl)-8-[(2,6-difluorobenzyl)oxy]-2-methylimidazo[1,2-a]-pyridine-3-carboxamide dihydrochloride]
19 | 0.65 | CCCC(C)(N)CNC(=O)c1c(C)nc2c(OCc3c(F)cccc3F)cc(N3CCOCC3)cn12 (single isomer, unassigned; enantiomer b) [Example 280, ent-N-(2-amino-2-methylpentyl)-8-[(2,6-difluorobenzyl)oxy]-2-methyl-6-(morpholin-4-yl)imidazo[1,2-a]pyridine-3-carboxamide (Enantiomer B)]
20 | 0.10 | Cc1cc(OCc2c(F)cccc2F)c2nc(C)c(C(=O)NCC3CSCCN3)n2c1 (racemic) [Example 366, rac-8-[(2,6-difluorobenzyl)oxy]-2,6-dimethyl-N-(thiomorpholin-3-ylmethyl)imidazo[1,2-a]pyridine-3-carboxamide]
21 | 0.30 | Cc1nc2c(OCc3c(F)cccc3F)cccn2c1C(=O)NC(CN)c1ccc(F)cc1F (stereo not drawn) [Example 21, ent-N-[2-Amino-1-(2,4-difluorophenyl)ethyl]-8-[(2,6-difluorobenzyl)oxy]-2-methylimidazo[1,2-a]-pyridine-3-carboxamide]
22 | 0.30 | CCCC(C)(N)CNC(=O)c1c(C)nc2c(OCc3c(F)cccc3F)cc(Cl)cn12 (racemic) [Example 244, rac-N-(2-Amino-2-methylpentyl)-6-chloro-8-[(2,6-difluorobenzyl)oxy]-2-methylimidazo[1,2-a]-pyridine-3-carboxamide]
23 | 1.00 | CCCC(C)(N)CNC(=O)c1c(C)nc2c(OCc3ccccc3Cl)cc(C)cn12 (racemic) [Example 343, rac-N-(2-amino-2-methylpentyl)-8-[(2-chlorobenzyl)oxy]-2,6-dimethylimidazo[1,2-a]pyridine-3-carboxamide]
24 | 0.3 | CCCC(C)(N)CNC(=O)c1c(C)nc2c(OCc3c(F)cccc3F)cc(C(F)F)cn12 (single isomer, unassigned; enantiomer b) [Example 290, ent-N-(2-amino-2-methylpentyl)-8-[(2,6-difluorobenzyl)oxy]-6-(difluoromethyl)-2-methylimidazo[1,2-a]pyridine-3-carboxamide (Enantiomer B)]
25 | 0.30 | Cc1cc(OCc2c(F)cccc2F)c2nc(C)c(C(=O)NCC(C)(N)CCO)n2c1 (single isomer, unassigned; enantiomer a) [Example 271, ent-N-(2-Amino-4-hydroxy-2-methylbutyl)-8-[(2,6-difluorobenzyl)oxy]-2,6-dimethylimidazo[1,2-a]pyridine-3-carboxamide (Enantiomer A)]
